Patent US7517840B2, “Optimized perfumery for rinse-off products” (Givaudan Fragrances Corporation, priority 2005, dated 2009)
“Also recorded” adds a separate entry of the source. Read-outs that look alike come from different tables or passages of the source.

Experiments:
[1] = Calculated pseudo-acceleration (Γ) of odorants in water, water-air and air
Excerpt: In the analysis of the volatility of odorants, several variables are found to be important. First, the vapor pressure of the odorant is an important measure of its volatility. The product of the odorant's activity coefficient γ in the partition its mole fraction X and its pure vapor pressure value Pv, gives the odorant's relative vapor pressure. A second important factor for volatility is the diffusivity D12 of the odorant in the considered media: water, vapor phase and subsequently air.
Other important variables to consider are the molecular weight Mw, of the odorant and its density in the partition ρl and in the solvent vapor state ρv. The final variable to consider is an energy parameter in the partition state. The energy difference ε12=ε12(polar)−ε12o(non-polar) is proportional to the partition coefficient of an odorant in a polar solvent such as water, and a water immiscible solvent such as octanol, benzene and paraffin liquid. The energy ε12 is called the partition energy and can be correlated to the clogP value of odorants.
The five variables D12, Pv, Mw, ρv and ε12 and the three dimensional variables indicate that there can be 5−3=2 dimensional variables which describe Newton's law. The easiest separation is to break the acceleration vector into 2 dimensional quantities: a frequency or first order rate constant (1/time) and a velocity (distance/time) term.
The velocity group can be formed from the vapor pressure and density. Since pressure has units of mass*distance/distance^2*time^2, and density has units of mass/distance^3, the ratio of the two has units of velocity squared. The square root gives the desired velocity.
The first order rate constant can be formed from the variables Mw, D12 and ε12. Since the partition energy ε12 has dimensions of calories per mole (mass.length^2/mole.time^2) and the diffusivity coefficient D12 has a dimension of distance^2 per time, the ratio yields exactly a molecular weight unit per time t. The energy can be made dimensionless by dividing by the gas constant k and temperature T. The remaining variable D12 can be made to a frequency by dividing by a cross sectional area L^2. A molecular area calculated from the liquid molar volume could represent this area.
Pseudo acceleration values are also closely linked to the ability of an odorant to travel through headspace once it is airborne in addition to its ability to migrate through the water and water-air partitions.

[2] = cited from earlier work
[3] = cited from earlier work; for exp ODT water: Booleans database; for Odor Detection Threshold: Table 24, Floral fragrance
[4] = Randebrock 1986; cited from earlier work
[5] = GC-MS headspace release profile of perfume in shampoo, 1/100 dilution in water; format: physicochemical; details: Tropical Fruit Perfume
Description: Experimental Procedure: Individual odorant to be tested was added to 20 g of shampoo formulation (see formula below in Table 4) at 0.1%.
A 10 gram sample of formulation and fragrance was added to an empty 1000 ml pyrex beaker. This beaker was then filled with 1000 ml of 120 F tap water. Beaker with diluted shampoo sample was then immediately placed into a semi-enclosed plexiglass chamber.
Headspace Sampling: Once beaker was placed into chamber a Carboxan SPME field fiber was held at the top-side opening of the chamber over the beaker containing the sample. […] […] Top of plexiglass chamber was held open for entire 5 minutes of headspace sampling.

SMILES | release category by Γ [1] | GC Abundance ([5]; 20 seconds) | GC Abundance ([5]; 30 seconds) | GC Abundance ([5]; 40 seconds) | GC Abundance ([5]; 50 seconds) | exp ODT water [3] | also measured
CC1=CCC(C(C)(C)S)CC1 (centres unmarked) | flash release | – | – | – | – | – | Boiling Point ([2]; Table 33): 229 deg C.; ODT ([3]; Table 32, citrus note): 50 ppb or less
CCCCCCCCCCC=O [1-undecanal] | – | – | – | – | – | – | experimental odor detection threshold in air [4]: 0.00054 mg/m^3
CCC=CCCC=CCO [2,6 NONADIEN-1-OL] | sustained release | – | – | – | – | – | ODT ([3]; Table 26, cucumber-melon note): 50 ppb or less; odor detection threshold value in water [3]: 1 part per billion
CCC=CCCC=CC=O [2,6-NONADIENAL] | flash release | – | – | – | – | – | ODT ([3]; Table 26, cucumber-melon note): 50 ppb or less; odor detection threshold values in water [3]: 0.01 ppb
CCOC(=O)C(C)CC (centres unmarked) [ETHYL 2-METHYLBUTYRATE, Ethyl 2-methylbutyrate] | flash-release | 3100 | 3100 | 2000 | 1500 | 0.1-0.3 ppb | GC Abundance ([5]; 10 seconds): 3000; ODT ([3]; Table 17, apple note compounds): 50 ppb or less
CC(=O)C=CC1=C(C)CCCC1(C)C [IONONE BETA PURE, 4-(2,6,6-Trimethyl-1-cyclohexen-1-yl)-3-buten-2-one] | – | – | 2000 | 10000 | 18000 | 4-6 ppb | Odor Detection Threshold [3]: 50 ppb or less
C=CC(C)(O)CCC=C(C)C (centres unmarked) [LINALOOL, linalool] | – | 18000 | 18000 | 18000 | 18000 | – | GC Abundance ([5]; 10 seconds): 500; Odor Detection Threshold [3]: 50 ppb or less
CCCC(C)C(=O)OCC (centres unmarked) [MANZANATE, Ethyl 2-methylpentanoate] | – | 4000 | 4000 | 3000 | 1500 | 0.0030 ppb | GC Abundance ([5]; 10 seconds): 1000; ODT ([3]; Table 17, apple note compounds): 50 ppb or less; odor detection threshold in water ([3]; text b188): 0.003 parts per billion
CC(C)=CC1CC(C)CCO1 (stereo not drawn) [ROSE OXIDE (HIGH CIS), Tetrahydro-4-methyl-2-(2-methylpropen-1-yl)pyran] | – | 10000 | 14000 | 14000 | 14000 | 0.5 ppb | –
CC(C)=CCCC(C)=CCS [THIOGERANIOL, 3,7-Dimethyl-2,6-octadien-1-thiol] | sustained release | – | – | – | – | – | Boiling Point ([2]; Table 33): 250 deg C.; Boiling Point [2]: 250 °C; ODT ([3]; Table 32, citrus note): 50 ppb or less
CCCCC/C=C/CCC=O [TRANS-4-DECEN-1-AL] | flash release | – | – | – | – | – | Boiling Point ([2]; Table 33): 200 deg C.; ODT ([3]; Table 32, citrus note): 50 ppb or less
CC(=O)OC1CCCCC1C(C)(C)C (centres unmarked) [VERDOX] | sustained release | 5000 | 14000 | 18000 | 20000 | – | –
CC=CC(=O)C1C(C)=CCCC1(C)C (stereo not drawn) [alpha-DAMASCONE, α-1-(2,6,6-Trimethyl-2-cyclohexen-1-yl)-2-buten-1-one] | – | – | – | 1000 | 5000 | 1.5 ppb | ODT ([3]; Table 17, apple note compounds): 50 ppb or less
C=C(C)[C@H]1CC=C(C)CC1 [d-LIMONENE, d-1-Methyl-4-isopropenyl-1-cyclohexene] | flash release; also recorded: flash-release | 7000 | 7000 | 5000 | 4000 | – | GC Abundance ([5]; 5 seconds): 7000; GC Abundance ([5]; 10 seconds): 7000
